Results published in PMC9186491, “Novel Small Molecule Tyrosine Kinase 2 Pseudokinase Ligands Block Cytokine-Induced TYK2-Mediated Signaling Pathways” (Frontiers in Immunology, 2022).
Converted amounts (≈) assume the structure as drawn. Read-outs that look alike come from different tables or passages of the source. One block for each compound: values may come before it.

Key:
[1] = test system: IFNα-induced CXCL10 production in human whole blood; assay: IFNα-induced CXCL10 production in human whole blood; type: cell-based
Procedure: Human whole blood [drawn with Ethylenediaminetetraacetic acid (EDTA) as anti-coagulant] was obtained from Zen-Bio Inc. (Durham, NC). […] The plasma was collected for detection of C-X-C motif chemokine 10 (CXCL10, IP10) secretion. CXCL10 was measured by Human CXCL10/IP-10 AlphaLISA Kit (PerkinElmer, #AL259 C/F) according to the manufacturer’s instructions.

[2] = test system: IFNα-induced TYK2/phosphoSTAT1 (Tyr701) in Kit225 T cells; assay: Kit225 T cell assay for IFNα-induced TYK2/phosphoSTAT1 activity; type: cell-based, human; details: Homo sapiens, KIT225, read-out: IC50 IFNα-induced-STAT1 Phosphorylation
Procedure: (§1) The cells were treated with serially diluted compounds for 1 hour and stimulated with 80 ng/mL human recombinant IFNα (R&D Systems) for 15 minutes. The treated cells were then lysed and cellular phosphorylated-STAT1 (Tyr701) levels were measured by AlphaLISA (PerkinElmer, Cat#ALSU-PST1) according to the manufacturer’s instructions.

[3] = test system: IL23-induced TYK2/phosphoSTAT3 (Tyr705) in Kit225 T cells; assay: Kit225 T cell assay for IL23-induced TYK2/phosphoSTAT3 activity; type: cell-based, human; details: Homo sapiens, KIT225, read-out: IC50 IL23-induced-STAT3 Phosphorylation
Procedure: as §1, with “100” for “80”, “IL23” for “IFNα”, “20” for “15”, “phosphorylated-STAT3 (Tyr705)” for “phosphorylated-STAT1 (Tyr701)”, “Cat# ALSU-PST3)” for “Cat#ALSU-PST1)”

[4] = test system: panel of 98 kinases; assay: Kinome screening panel (DiscoverX scanEdge); type: binding; details: 1 µM; 91 non-mutant kinases
Procedure: For compound selectivity across a multi-kinase panel, compound binding affinity to each kinase or pseudokinase protein region was assessed using the DiscoverX scanEdge screening. Compounds were screened at a concentration of 1,000 nM in competition binding assays at Eurofins DiscoverX Corporation following the established standard protocol (DiscoverX, San Diego, CA), as described previously in the KdELECT competition binding assay. Competition with test compounds for binding to resin conjugated affinity ligand was employed to determine the “hits”, which are identified by measuring the amount of kinase captured in test versus control samples by using a quantitative PCR method that detects the associated DNA label. This measurement assesses compound selectivity against a panel of 98 kinases including kinases from the protein kinase A, G, and C family group (AGC), Ca^2+/calmodulin-dependent protein kinase class of enzymes (CAMK), group of cyclin-dependent kinase (CDK), mitogen-activated protein kinase (MAPK), glycogen synthase kinase (GSK) and CDC-like kinase (CLK) (CMGC), Casein kinase 1 (CK1), group of Ste 7, Ste 11 and Ste 20 kinases (STE), Tyrosine Kinases (TK), Tyrosine Kinase-Like group (TKL), lipid, and atypical kinase families, and other mutant forms.

[5] = biological target: T1, TYK2 JH2 pseudokinase domain (Homo sapiens, UniProt P29597); assay: KdELECT competition binding assay, TYK2 JH2; details: isolated TYK2 JH2 domain
T1 construct: purchased Eurofins DiscoverX Corporation (contract assay)
Procedure: (§2) The KdELECT competition assays were performed to test the binding affinity of compounds to the JH1 kinase region or JH2 pseudokinase region in TYK2 or JAK by ligand competition with JH1 or JH2 protein segments. The assay was carried out at Eurofins DiscoverX Corporation following the established standard protocol (DiscoverX, San Diego, CA). In this assay, compounds that bind to the kinase or pseudokinase protein regions prevent the protein binding to the immobilized ligand and reduce the amount of kinase matter captured on the solid surface. […] Dissociation constants (Kds) for test compound-kinase interactions are calculated by measuring the amount of kinase captured on the solid support as a function of the test compound concentration. […] The ligated beads were blocked with excess biotin and washed with blocking buffer to remove unbound ligand and to reduce nonspecific binding. […] All reactions were performed in polypropylene 384-well plates with a final volume of 20 μL. […] The beads were then re-suspended in the elution buffer and incubated at room temperature with shaking for 30 minutes. The kinase concentration in the eluant was measured by qPCR. Two replicates were performed and averaged to obtain the Kd measurement.

[6] = biological target: CYP450 2C19 (Homo sapiens, UniProt P33261); assay: CYP450 inhibition, 2C19; type: in vitro ADME
[7] = LM T1/2, Mk; type: in vitro ADME; details: monkey, liver microsomes
[8] = Solubility (PBS/Fas/Fes); type: physicochemical
[9] = biological target: CYP450 2D6 (Homo sapiens, UniProt P10635); assay: CYP450 inhibition, 2D6; type: in vitro ADME
[10] = LM T1/2, M; type: in vitro ADME; details: mouse, liver microsomes
[11] = LM T1/2, D; type: in vitro ADME; details: dog, liver microsomes
[12] = biological target: CYP450 3A4 (Homo sapiens, UniProt P08684); assay: CYP450 inhibition, 3A4; type: in vitro ADME; details: 3A4(m); read-out: CYP450 3A4(m)
[13] = LM T1/2, R; type: in vitro ADME; details: rat, liver microsomes
[14] = biological target: T2, TYK2 JH1 kinase domain (Homo sapiens, UniProt P29597); assay: KdELECT competition binding assay, TYK2 JH1; details: isolated TYK2 JH1 domain
T2 construct: purchased Eurofins DiscoverX Corporation (contract assay)
T2 sequence (P29597 897-1176 limits assumed): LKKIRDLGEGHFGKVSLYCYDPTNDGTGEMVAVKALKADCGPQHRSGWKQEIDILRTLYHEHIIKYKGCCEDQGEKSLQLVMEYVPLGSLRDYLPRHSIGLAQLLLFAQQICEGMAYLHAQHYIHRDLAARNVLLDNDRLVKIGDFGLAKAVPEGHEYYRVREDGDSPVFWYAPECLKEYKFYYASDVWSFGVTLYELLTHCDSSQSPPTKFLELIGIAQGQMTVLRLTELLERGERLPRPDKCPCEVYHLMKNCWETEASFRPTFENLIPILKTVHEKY
Procedure: as §2

[15] = GSH; type: in vitro ADME
[16] = LM T1/2, H; type: in vitro ADME; details: human, liver microsomes
[17] = biological target: CYP450 2C9 (Homo sapiens, UniProt P11712); assay: CYP450 inhibition, 2C9; type: in vitro ADME
[18] = biological target: T3, CYP450 1A2 (Homo sapiens, UniProt P05177); assay: CYP450 inhibition, 1A2; type: in vitro ADME
T3 sequence (P05177 1-516): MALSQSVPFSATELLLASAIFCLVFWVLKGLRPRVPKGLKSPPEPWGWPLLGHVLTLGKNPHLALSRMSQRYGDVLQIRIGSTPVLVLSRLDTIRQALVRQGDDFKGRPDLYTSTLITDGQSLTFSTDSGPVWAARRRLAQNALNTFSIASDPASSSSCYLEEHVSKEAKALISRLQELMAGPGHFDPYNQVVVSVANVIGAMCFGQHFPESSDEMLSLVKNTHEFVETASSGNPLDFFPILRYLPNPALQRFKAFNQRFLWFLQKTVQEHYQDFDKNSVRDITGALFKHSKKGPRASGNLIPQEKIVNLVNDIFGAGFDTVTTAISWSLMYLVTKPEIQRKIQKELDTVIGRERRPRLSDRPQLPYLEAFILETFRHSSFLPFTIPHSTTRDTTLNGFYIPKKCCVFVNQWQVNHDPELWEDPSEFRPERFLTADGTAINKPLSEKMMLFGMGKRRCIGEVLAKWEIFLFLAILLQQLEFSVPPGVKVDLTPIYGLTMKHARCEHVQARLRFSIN

[19] = Homo sapiens, read-out: IFNa-induced-CXCL10 Production in Human Whole Blood IC50, Average
[20] = Homo sapiens, read-out: IFNa-induced-CXCL10 Production in Human Whole Blood IC50, Donor 1
[21] = Homo sapiens, read-out: IFNa-induced-CXCL10 Production in Human Whole Blood IC50, Donor 2
[22] = Homo sapiens, read-out: IFNa-induced-CXCL10 Production in Human Whole Blood IC50, Donor 3

T1 sequence (P29597 589-875 limits assumed): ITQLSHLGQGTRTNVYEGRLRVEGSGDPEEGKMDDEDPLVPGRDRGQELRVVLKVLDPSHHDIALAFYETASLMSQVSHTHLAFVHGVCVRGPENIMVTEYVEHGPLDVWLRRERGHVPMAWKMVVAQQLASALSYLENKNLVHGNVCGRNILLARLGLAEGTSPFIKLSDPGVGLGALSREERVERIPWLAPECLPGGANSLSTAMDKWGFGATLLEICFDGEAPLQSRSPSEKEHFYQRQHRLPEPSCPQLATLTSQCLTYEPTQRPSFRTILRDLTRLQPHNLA
CYP450 2C19, sequence (P33261 whole entry): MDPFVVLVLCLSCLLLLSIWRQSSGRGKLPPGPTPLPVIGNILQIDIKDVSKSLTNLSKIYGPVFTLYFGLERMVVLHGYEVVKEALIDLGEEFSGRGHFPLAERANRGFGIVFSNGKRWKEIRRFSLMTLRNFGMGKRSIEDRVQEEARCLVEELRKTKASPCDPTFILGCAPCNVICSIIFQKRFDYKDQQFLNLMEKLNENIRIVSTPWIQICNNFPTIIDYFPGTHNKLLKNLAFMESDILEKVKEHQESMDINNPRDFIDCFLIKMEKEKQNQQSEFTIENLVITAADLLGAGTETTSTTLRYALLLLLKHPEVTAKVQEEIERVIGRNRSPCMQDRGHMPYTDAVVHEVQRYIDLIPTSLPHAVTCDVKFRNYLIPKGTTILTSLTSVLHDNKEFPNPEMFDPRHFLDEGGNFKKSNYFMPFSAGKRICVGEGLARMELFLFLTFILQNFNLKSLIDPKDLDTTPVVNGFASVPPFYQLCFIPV
CYP450 2C9, sequence (P11712 whole entry): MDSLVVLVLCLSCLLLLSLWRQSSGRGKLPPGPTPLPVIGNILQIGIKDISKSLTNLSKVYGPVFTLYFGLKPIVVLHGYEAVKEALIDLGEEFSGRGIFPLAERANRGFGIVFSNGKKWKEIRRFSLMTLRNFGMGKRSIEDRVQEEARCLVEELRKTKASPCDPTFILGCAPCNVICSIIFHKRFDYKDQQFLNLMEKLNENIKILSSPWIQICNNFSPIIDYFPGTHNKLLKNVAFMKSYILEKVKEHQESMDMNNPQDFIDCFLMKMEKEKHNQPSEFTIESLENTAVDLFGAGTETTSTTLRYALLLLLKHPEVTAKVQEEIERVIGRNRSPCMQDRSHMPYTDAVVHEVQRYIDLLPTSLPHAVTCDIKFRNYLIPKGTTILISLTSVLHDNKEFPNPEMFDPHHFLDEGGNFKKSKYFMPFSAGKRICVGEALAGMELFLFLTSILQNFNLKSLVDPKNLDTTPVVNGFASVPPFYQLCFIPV
CYP450 2D6, sequence (P10635 whole entry): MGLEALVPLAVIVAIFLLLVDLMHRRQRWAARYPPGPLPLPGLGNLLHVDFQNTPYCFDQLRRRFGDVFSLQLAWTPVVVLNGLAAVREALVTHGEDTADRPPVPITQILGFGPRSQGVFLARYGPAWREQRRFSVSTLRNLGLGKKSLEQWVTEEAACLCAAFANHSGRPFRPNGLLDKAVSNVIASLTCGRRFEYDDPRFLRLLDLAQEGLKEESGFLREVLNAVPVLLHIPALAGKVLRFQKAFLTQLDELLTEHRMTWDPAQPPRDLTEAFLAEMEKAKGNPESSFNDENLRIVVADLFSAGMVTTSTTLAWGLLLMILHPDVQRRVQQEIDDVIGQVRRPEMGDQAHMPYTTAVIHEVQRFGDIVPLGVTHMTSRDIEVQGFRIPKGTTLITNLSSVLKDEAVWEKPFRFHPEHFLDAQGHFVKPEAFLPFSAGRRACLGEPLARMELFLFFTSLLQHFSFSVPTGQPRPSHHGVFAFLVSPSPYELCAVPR
CYP450 3A4, sequence (P08684 whole entry): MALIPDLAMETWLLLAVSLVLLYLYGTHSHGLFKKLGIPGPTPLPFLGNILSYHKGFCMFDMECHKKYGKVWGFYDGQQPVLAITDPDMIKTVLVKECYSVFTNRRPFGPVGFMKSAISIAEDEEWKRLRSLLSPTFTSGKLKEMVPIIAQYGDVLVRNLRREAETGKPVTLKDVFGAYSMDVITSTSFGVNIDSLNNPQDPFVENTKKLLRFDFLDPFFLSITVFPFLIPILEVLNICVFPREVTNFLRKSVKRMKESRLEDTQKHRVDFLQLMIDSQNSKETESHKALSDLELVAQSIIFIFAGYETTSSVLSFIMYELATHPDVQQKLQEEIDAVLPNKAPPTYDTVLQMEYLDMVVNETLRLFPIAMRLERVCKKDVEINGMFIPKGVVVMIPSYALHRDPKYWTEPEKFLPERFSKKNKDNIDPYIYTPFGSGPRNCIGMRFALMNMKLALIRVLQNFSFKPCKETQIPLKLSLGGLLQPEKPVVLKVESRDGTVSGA

IC50 ([1]; Homo sapiens; average of Donor 1-3; read-out: IFNa-induced-CXCL10 Production in Human Whole Blood IC50, Average): 730 nM
IC50 ([1]; Homo sapiens; read-out: IFNa-induced-CXCL10 Production in Human Whole Blood IC50, Donor 1): 770 nM
IC50 ([1]; Homo sapiens; read-out: IFNa-induced-CXCL10 Production in Human Whole Blood IC50, Donor 2): 790 nM
IC50 ([1]; Homo sapiens; read-out: IFNa-induced-CXCL10 Production in Human Whole Blood IC50, Donor 3): 630 nM
IC50 [2]: 250 nM
IC50 [3]: 3800 nM
SMILES: O=C(Nc1nc2cccc(-c3ccc(CN4CCS(=O)(=O)CC4)cc3)n2n1)C1CC1 [Filgotinib]

IC50 ([1]; human whole blood, IFNα 16 hours; read-out: TYK2-associated IFNα-induced-CXCL10 Production in Human Whole Blood: IC50): 2000 ± 960 nM
SMILES: Cn1cc(-c2cn3nccc3c(-c3cnn([C@]4(CC#N)C[C@@H](C#N)C4)c3)n2)cn1 [Ropsacitinib]

IC50 [1, 19]: 1900 nM
IC50 [1, 20]: 2100 nM
IC50 [1, 21]: 2800 nM
IC50 [1, 22]: 740 nM
IC50 [2]: 12 nM
IC50 [3]: 3 nM
SMILES: N#CC[C@H](C1CCCC1)n1cc(-c2ncnc3[nH]ccc23)cn1 [Ruxolitinib]

Kd [5]: 0.053 nM
SMILES: CNC(=O)c1cnc(Nc2ccc(N3CCC3)cn2)cc1Nc1ccccc1S(C)(=O)=O [SHR1274]
No. of Hits S (1) [4]: 1
No. of Hits S (10) [4]: 1
No. of Hits S (35) [4]: 2

SMILES: CNC(=O)c1nnc(NC(=O)C2CC2)c2[nH]c(-c3ccccc3OC)cc12 [SHR2178]
IC50 [6]: 30000 nM
half-life [7]: 99 min
solubility ([8]; FaSSIF, read-out: Solubility, Fas): 1.7 µM (≈ 0.621 µg/mL)
solubility ([8]; FeSSIF (Fes [sic]), fessif, read-out: Solubility, Fes): 3.5 µM (≈ 1.28 µg/mL)
solubility ([8]; PBS, aqueous buffer, read-out: Solubility, PBS): 0.1 µM (≈ 0.0365 µg/mL)
IC50 [9]: 30000 nM
half-life [10]: 55 min
half-life [11]: 40 min
Kd [5]: 0.34 nM
IC50 [12]: 30000 nM
half-life [13]: 24 min
Kd [14]: > 20000 nM
GSH [15]: negative
half-life [16]: 34 min
IC50 [17]: 30000 nM
IC50 [18]: 4000 nM

SMILES: [2H]C([2H])([2H])NC(=O)c1nnc(NC(=O)C2CC2)cc1Nc1cccc(-c2nc3c(s2)CN(S(C)(=N)=O)C3)c1OC (stereo not drawn) [SHR3110]
IC50 [1, 19]: 570 nM
IC50 [1, 20]: 480 nM
IC50 [1, 21]: 710 nM
IC50 [1, 22]: 520 nM
IC50 [2]: 16 nM
IC50 [3]: 24 nM

SMILES: CC[C@@H]1CN(C(=O)NCC(F)(F)F)C[C@@H]1c1cnc2cnc3[nH]ccc3n12 [Upadacitinib]
IC50 [1, 19]: 120 nM
IC50 [1, 20]: 130 nM
IC50 [1, 21]: 110 nM
IC50 [1, 22]: 130 nM
IC50 [2]: 7 nM
IC50 [3]: 22 nM
